# Calls of active or inactive are those of the source. The rule behind the calls is not given here.
# Experiments:
# Staphylococcus aureus [1] = experiment: Antibacterial activity against methicillin-resistant Staphylococcus aureus ATCC 700699 by broth micro dilution method; format: functional
# Enterococcus faecalis [2] = experiment: Antibacterial activity against vancomycin-resistant Enterococcus faecalis ATCC 51299 by broth micro dilution method; format: functional
# Enterococcus faecalis [3] = experiment: Antibacterial activity against Enterococcus faecalis ATCC 35667 by broth micro dilution method; format: functional
# Bacillus subtilis [4] = experiment: Antibacterial activity against Bacillus subtilis 168 by broth micro dilution method; format: functional
# Acinetobacter baumannii = experiment: Antibacterial activity against multidrug-resistant Acinetobacter baumannii ATCC BAA-1605 by broth micro dilution method; format: functional
# Staphylococcus aureus [5] = experiment: Antibacterial activity against methicillin-resistant Staphylococcus aureus ATCC 700699 assessed as delay in growth at 6.25 uM measured for 24 hrs relative to control; format: functional
# Staphylococcus aureus [6] = experiment: Bactericidal activity against methicillin-resistant Staphylococcus aureus ATCC 700699 assessed as reduction in bacterial CFU at 4 times MIC measured for 30 mins; format: functional
# [7] = Selectivity index, ratio of IC50 for human THP1 cells to MIC90 for methicillin-resistant Staphylococcus aureus ATCC 700699; format: toxicity; details: read-out: Selectivity Index
# [8] = Selectivity index, ratio of IC50 for human MRC5 cells to MIC90 for methicillin-resistant Staphylococcus aureus ATCC 700699; format: toxicity; details: read-out: Selectivity Index
# [9] = Selectivity index, ratio of IC50 for human HepG2 cells to MIC90 for methicillin-resistant Staphylococcus aureus ATCC 700699; format: toxicity; details: read-out: Selectivity Index
# [10] = Selectivity index, ratio of IC50 for human CLS54 cells to MIC90 for methicillin-resistant Staphylococcus aureus ATCC 700699; format: toxicity; details: read-out: Selectivity Index
# Staphylococcus aureus [11] = experiment: Induction of membrane integrity impairment in methicillin-resistant Staphylococcus aureus ATCC 700699 at 0.5 to 4 times MIC measured for 30 mins by DiOC2(3) probe based fluorescence assay; format: functional, organism-based
# Staphylococcus aureus [12] = experiment: Induction of membrane integrity impairment in methicillin resistant Staphylococcus aureus Mu50 harboring GFP reporter plasmid assessed as increase in release of GFP at 1 to 16 times MIC incubated for 3 to 6 hrs by […]; format: functional, organism-based
# Staphylococcus aureus [13] = experiment: Induction of membrane integrity impairment in methicillin-resistant Staphylococcus aureus ATCC 700699 at 12.5 to 25 uM measured for 3 hrs by PI staining based fluorescence assay; format: functional, organism-based
# Bacillus subtilis [14] = experiment: Induction of LiaH.1 protein expression in Bacillus subtilis 168 at 2.3 uM incubated for 15 mins by 35S-methionine pulse labeling based 2D-PAGE analysis; format: functional, organism-based
# Bacillus subtilis [15] = experiment: Induction of SufD protein expression in Bacillus subtilis 168 at 2.3 uM incubated for 15 mins by 35S-methionine pulse labeling based 2D-PAGE analysis; format: functional, organism-based
# Bacillus subtilis [16] = experiment: Induction of GroEL.2 protein expression in Bacillus subtilis 168 at 2.3 uM incubated for 15 mins by 35S-methionine pulse labeling based 2D-PAGE analysis; format: functional, organism-based
# Bacillus subtilis [17] = experiment: Induction of ClpC protein expression in Bacillus subtilis 168 at 2.3 uM incubated for 15 mins by 35S-methionine pulse labeling based 2D-PAGE analysis; format: functional, organism-based
# Bacillus subtilis [18] = experiment: Induction of ArgB protein expression in Bacillus subtilis 168 at 2.3 uM incubated for 15 mins by 35S-methionine pulse labeling based 2D-PAGE analysis; format: functional, organism-based
# Bacillus subtilis [19] = experiment: Induction of YhfK protein expression in Bacillus subtilis 168 at 2.3 uM incubated for 15 mins by 35S-methionine pulse labeling based 2D-PAGE analysis; format: functional, organism-based
# Bacillus subtilis [20] = experiment: Induction of ClpP protein expression in Bacillus subtilis 168 at 2.3 uM incubated for 15 mins by 35S-methionine pulse labeling based 2D-PAGE analysis; format: functional, organism-based
# Bacillus subtilis [21] = experiment: Induction of DnaK.1 protein expression in Bacillus subtilis 168 at 2.3 uM incubated for 15 mins by 35S-methionine pulse labeling based 2D-PAGE analysis; format: functional, organism-based
# Bacillus subtilis [22] = experiment: Induction of YvlB protein expression in Bacillus subtilis 168 at 2.3 uM incubated for 15 mins by 35S-methionine pulse labeling based 2D-PAGE analysis; format: functional, organism-based
# Bacillus subtilis [23] = experiment: Induction of YuaE protein expression in Bacillus subtilis 168 at 2.3 uM incubated for 15 mins by 35S-methionine pulse labeling based 2D-PAGE analysis; format: functional, organism-based
# Bacillus subtilis [24] = experiment: Induction of YceH protein expression in Bacillus subtilis 168 at 2.3 uM incubated for 15 mins by 35S-methionine pulse labeling based 2D-PAGE analysis; format: functional, organism-based
# Bacillus subtilis [25] = experiment: Induction of PpaC protein expression in Bacillus subtilis 168 at 2.3 uM incubated for 15 mins by 35S-methionine pulse labeling based 2D-PAGE analysis; format: functional, organism-based
# Bacillus subtilis [26] = experiment: Induction of HisI protein expression in Bacillus subtilis 168 at 2.3 uM incubated for 15 mins by 35S-methionine pulse labeling based 2D-PAGE analysis; format: functional, organism-based
# Bacillus subtilis [27] = experiment: Induction of YfmJ protein expression in Bacillus subtilis 168 at 2.3 uM incubated for 15 mins by 35S-methionine pulse labeling based 2D-PAGE analysis; format: functional, organism-based
# Bacillus subtilis [28] = experiment: Induction of YqjE protein expression in Bacillus subtilis 168 at 2.3 uM incubated for 15 mins by 35S-methionine pulse labeling based 2D-PAGE analysis; format: functional, organism-based
# Bacillus subtilis [29] = experiment: Induction of YkgB protein expression in Bacillus subtilis 168 at 2.3 uM incubated for 15 mins by 35S-methionine pulse labeling based 2D-PAGE analysis; format: functional, organism-based
# Bacillus subtilis [30] = experiment: Induction of SodA protein expression in Bacillus subtilis 168 at 2.3 uM incubated for 15 mins by 35S-methionine pulse labeling based 2D-PAGE analysis; format: functional, organism-based
# Bacillus subtilis [31] = experiment: Induction of AhpF protein expression in Bacillus subtilis 168 at 2.3 uM incubated for 15 mins by 35S-methionine pulse labeling based 2D-PAGE analysis; format: functional, organism-based
smiles,measurement,setting,value
CC(C)=CCC/C(C)=C/Cc1c(O)ccc(C(=O)/C=C/c2ccc(O)cc2)c1O [XANTHOANGELOL],MIC,Staphylococcus aureus [1],3.12 µM
same,MIC50,Staphylococcus aureus [1],0.96 µM
same,MIC90,Staphylococcus aureus [1],1.33 µM
same,MIC,Enterococcus faecalis [2],6.25 µM
same,MIC,Enterococcus faecalis [3],12.5 µM
same,MIC,Bacillus subtilis [4],3.12 µM
same,MIC,Acinetobacter baumannii,> 100 µM
same,Activity,Staphylococcus aureus [5],100%
same,Activity,Staphylococcus aureus [6],<20 CFU/ml
same,selectivity ratio,[7],17.7
same,selectivity ratio,[8],16.3
same,selectivity ratio,[9],10.3
same,selectivity ratio,[10],44.2
same,Activity,Staphylococcus aureus [11],Active
same,Activity,Staphylococcus aureus [12],Active
same,Activity,Staphylococcus aureus [13],Active
same,Activity,Bacillus subtilis [14],Active
same,Activity,Bacillus subtilis [15],Active
same,Activity,Bacillus subtilis [16],Active
same,Activity,Bacillus subtilis [17],Active
same,Activity,Bacillus subtilis [18],Active
same,Activity,Bacillus subtilis [19],Active
same,Activity,Bacillus subtilis [20],Active
same,Activity,Bacillus subtilis [21],Active
same,Activity,Bacillus subtilis [22],Active
same,Activity,Bacillus subtilis [23],Active
same,Activity,Bacillus subtilis [24],Active
same,Activity,Bacillus subtilis [25],Active
same,Activity,Bacillus subtilis [26],Active
same,Activity,Bacillus subtilis [27],Active
same,Activity,Bacillus subtilis [28],Active
same,Activity,Bacillus subtilis [29],Active
same,Activity,Bacillus subtilis [30],Active
same,Activity,Bacillus subtilis [31],Active
